Results as given in patent US4150120A, “Ophthalmic” (Takeda Chemical Industries, Ltd., priority 1977, dated 1979).
Where a name gives a salt, the structure may show the parent alone. Read-outs that look alike come from different tables or passages of the source.

Experiments:
[1] = system: acute conjunctivitis (dogs); test: Treatment of acute conjunctivitis (dogs) by ophthalmic instillation of 0.01% TRH tartrate; format: in vivo, dog
Description: The following examples illustrate the treatment of a case of acute catarrhal conjunctivitis and a case of drug-induced acute conjunctivitis, by ophthalmic instillation of TRH alone.

cataract (dogs) [2] = format: in vivo, dog
Method: 2, 1977. (Treatment) Starting on Feb. 28, 1977 opthalmic instillations of a 0.01% aqueous solution of free TRH were given 3 times a day. (Treatment) Starting on Aug. […] The right eye was treated simultaneously with the aqueous solution of TRH tartrate alone.

[3] = system: progressive cataract (dogs); parameters: Evaluation: key to the marks not given beside the values; details: for Relapse: diagnosed after 3 months
cataract (dogs) [4] = format: in vivo, dog; remark: listed apart in the source
[5] = Case 3, left eye, with dexamethasone and flavine-adenine dinucleotide, August 20

Q: `NC(=O)[C@@H]1CCCN1C(=O)[C@H](Cc1cnc[nH]1)NC(=O)[C@@H]1CCC(=O)N1` [TRH tartrate, L-pyroglutamyl-L-histidyl-L-prolinamide] was tested. Which “outcome of the case” value ([1]; Case 1, acute catarrhal conjunctivitis) did it give?
A: judged to have been cured

Q: What about the findings at examination ([1]; Case 1, acute catarrhal conjunctivitis, three instillations given every other day, 7th day after start) of the same compound?
A: neither a hyperemia nor overflowing tears

Q: And the findings at examination ([1]; Case 2, acute conjunctivitis due to irritation by insecticide, 2 instillations given every other day)?
A: the hyperemia had disappeared and the slightly dilated eye balls had become normal

Q: And the “outcome of the case” value ([1]; Case 2, drug-induced acute conjunctivitis)?
A: cured

Q: And the “pannus, left eye” value (cataract (dogs) [2]; Case 3, left eye (immature cortical cataract and corneitis), with 0.02% dexamethasone and 0.05% flavine-adenine dinucleotide, 5 to 6 times daily, August 20)?
A: the pannus had disappeared

Q: What about the “ciliary congestion, left eye” value (cataract (dogs) [2]; [5]) of the same compound?
A: the ciliary congestion persisted

Q: And the “pupillary reflex and dilation, left eye” value (cataract (dogs) [2]; [5])?
A: satisfactory

Q: And the “lens clarity, right eye” value (cataract (dogs) [2]; Case 3, right eye, TRH tartrate solution alone, 5 to 6 times daily, August 20)?
A: increased clarity in the upper margin of the lens

Q: And the “lens clarity, both eyes” value (cataract (dogs) [2]; Case 3, TRH tartrate solution alone from September 2, September 25)?
A: significantly increased clarity

Q: What about the “lens opacity, both eyes” value (cataract (dogs) [2]; Case 3, TRH tartrate solution and dexamethasone solution twice daily, September 2) of the same compound?
A: only thinned opacities all over the lens

Q: What about the “side effect at the times of instillation” value (cataract (dogs) [2]; dog, in vivo) of the same compound?
A: No side effect was noted

Q: And the “day on which responses were elicited (generally, seven cases)” value ([3]; 0.01% aqueous solution, 3 instillations a day, eye lids pressed after instillation)?
A: third

Q: And the “result of first course” value ([3]; Case 1, 2 instillations daily for 3 consecutive days, then discontinued)?
A: apparently satisfactory

Q: And the “outcome of the case” value ([3]; Cases 1 and 2, 0.01% solution, 2 instillations daily)?
A: judged to have been cured

Q: What about the Evaluation ([3]; case 7, serious total cataract (bilateral), 3 instillations daily for 4 days plus TRH.corson injections on 1st and 3rd days) of the same compound?
A: ++

Q: What about the Relapse ([3]; case 7, with adjunct TRH.corson injections) of the same compound?
A: None

Q: What about the Evaluation ([3]; case 9, transient central cataract due to traumatic corneitis (left eye), 2 instillations daily) of the same compound?
A: +++

Q: And the Relapse ([3]; cases 3-6 and 8)?
A: None

Q: And the “reaction after each instillation (irritation to the conjunctiva)” value ([3]; dog, in vivo)?
A: closed the lids for a while, followed by several blinkings

Q: What about the pupillary reflex (cataract (dogs) [4]; Case 1, total cataract, 4 to 5 instillations daily from Feb. 2, on February 28) of the same compound?
A: normal

Q: And the “opacity of pupillary area” value (cataract (dogs) [4]; Case 1, on February 28)?
A: reduced opacity

Q: And the “clarity of the cortex of lens (visual examination)” value (cataract (dogs) [4]; Case 1, on March 10)?
A: improved

Q: How did the “lens of right eye” value (cataract (dogs) [2]; Case 2, senile cataract, 0.01% aqueous solution of free TRH 3 times a day from Feb. 28, on April 23) turn out when `NC(=O)[C@@H]1CCCN1C(=O)[C@H](Cc1cnc[nH]1)NC(=O)[C@@H]1CCC(=O)N1` [TRH, L-pyroglutamyl-L-histidyl-L-prolinamide] was run?
A: the lens cortex of the right eye was remarkably clear

Q: And the “lens of left eye” value (cataract (dogs) [2]; Case 2, 0.01% free TRH 3 times a day, on April 23)?
A: the circumstances of lens in the left eye could be delineated

Q: And the “side effect during the instillation period” value (cataract (dogs) [2]; dog, in vivo)?
A: No side effect was observed
